Assay [1] has as its system human liver cancer cells (HepG-2). Put plainly: MTT cytotoxicity assay, HepG-2. It is filed as cell-based. The conditions noted are these: 72-h incubation. The method, then:
(§1) The above cells were tested for cytotoxicity to identify the most promising antitumor drug among the synthesized quinazolinone derivatives.
(§2) An MTT assay was used to evaluate the in vitro cytotoxicity of the new compounds. The MTT assay depends on the reduction of soluble 3-([…])-2,5-diphenyl-tetrazolium bromide (MTT) into a blue purple formazan product, mainly by mitochondrial reductase activity inside living cells. […] The cells were suspended in growth medium and plated in 96-well culture plates at a density of 4 × 10^4 cells/well and incubated at 37 °C in a 5% CO2 incubator. […] Each experiment was performed at least 3 times.
On the technique in general: Tetrazolium assays rely on reduction of a dye to a coloured formazan, in cell work by metabolically active cells.

Assay [2] deals with breast cancer cells (MDA-MB-231). Put plainly: MTT cytotoxicity assay, MDA-MB-231. Type of assay: cell-based, human. Conditions: Homo sapiens, 72-h incubation. The procedure:
as §1, §2

Assay [3] has as its system ovarian cancer cells (A2780). The experiment in a line: MTT cytotoxicity assay, A2780. Conditions: 72-h incubation. Type of assay: cell-based, human. The procedure:
as §1, §2

The subject of assay [4] is human hepatic stellate cells (LX-2). Put plainly: MTT cytotoxicity assay, LX-2 normal control. Type of assay: cell-based. The conditions noted are these: Homo sapiens, 72-h incubation. The method, then: as §1, §2
Assay [5] can be described thus: DPPH• free radical scavenging assay. The conditions noted are these: for IC50: concentration required to scavenge 50% of the DPPH, 30 min in the dark. The procedure:
The quinazolinone derivatives were evaluated for their free radical scavenging activity at 320, 160, 80, 40, 20, and 10 µM concentration using the DPPH radical method, with ascorbic acid as the positive control (Table 3).
The antiradical activity of the compounds was estimated according to a slight modification of the procedure reported by Morales and Jimenez-Perez. […] Each sample (100 μL) at a different concentration was added to a freshly prepared solution of 1,1-diphenyl-2-picrylhydrazyl (DPPH•) radical (0.2 mM, 100 μL). The mixtures (200 μL) were placed in a 96-well microplate, shaken vigorously, and then left to stand for 30 min in the dark. Then, absorbance was immediately measured at a wavelength of 517 nm. Vc was used as the standard. The antiradical activity for each compound was determined in the Vc equivalent antioxidant capacity. The DPPH• solution in the presence of ethanol and in the absence of compounds was tested and used as a negative control. […] In all experiments, the samples were analyzed in triplicate, and activity for each compound was presented as the mean value ± SEM and used for evaluation of structure–activity relationships. […] Absorbance was taken at 520 nm using a microplate reader (Tecan, Männedorf, Switzerland).
Background: The DPPH test is a chemical assay of radical scavenging.

From paper PMC9737648, “Novel Approaches for the Solid-Phase Synthesis of Dihydroquinazoline-2(1H)-One Derivatives and Biological Evaluation as Potential Anticancer Agents” (Molecules, 2022) come the findings set out here.

For orientation: IC50 means the concentration needed to halve the response being measured. Lower therefore signals higher potency.

For `NCCCN1C(=O)NC(CC(=O)NC(CO)C(N)=O)c2cc(NC(=O)c3cccnc3)ccc21.O=C(O)C(F)(F)F` (centres unmarked) [CA1-e, 3-{4-{2-[(1-amino-3-hydroxy-1-oxopropan-2-yl)amino]-2-oxoethyl}-6-(nicotinamido)-2-oxo-3,4-dihydroquinazolin-1(2H)-yl}propan-1-aminium 2,2,2-trifluoroacetate], the IC50 is 37.6 ± 5.53 µM in assay [1]; < 50 µM in assay [1] (Homo sapiens, HepG2, 72 h); 85.7 ± 5.3 µM in assay [2]; 22.76 ± 0.22 µM in assay [3]; < 40 µM in assay [3] (Homo sapiens, A2780, 72 h); > 100 µM in assay [4]. In assay [5], the IC50 was > 1000 µM. Further, the “antioxidant activity (in words)” value in assay [5] (DPPH assay) is “no antioxidant activity”.
Consider `CC(C)(NC(=O)CC1NC(=O)N(Cc2ccccc2)c2ccc(NC(=O)COc3ccccc3)cc21)C(N)=O` (centres unmarked) [CA4, 2-{2-[1-benzyl-2-oxo-6-(2-phenoxyacetamido)-1,2,3,4-tetrahydroquinazolin-4-yl]acetamido}-2-methylpropanamide], for which the IC50 is 72.7 ± 2.76 µM in assay [1] (Homo sapiens, HepG2, 72 h); 87.1 ± 4.47 µM in assay [2]; 66.2 ± 4.1 µM in assay [3] (Homo sapiens, A2780, 72 h); 72.9 ± 0.91 µM in assay [4]; 951 ± 30.6 µM in assay [5].
The corresponding values for `CC(C)CCN1C(=O)NC(CC(=O)NC(CCCN)C(N)=O)c2cc(NC(=O)CCc3cccnc3)ccc21` (centres unmarked) [CA3, 5-amino-4-{2-{1-isopentyl-2-oxo-6-[3-(pyridin-3-yl)propanamido]-1,2,3,4-tetrahydroquinazolin-4-yl}acetamido}-5-oxopentan-1-aminium 2,2,2-trifluoroacetate] are 64.2 ± 4.69 µM, 86 ± 11.1 µM, 82.9 ± 2.13 µM, > 100 µM and > 1000 µM.
The corresponding values for `NCCCN1C(=O)NC(CC(=O)NC(CO)C(N)=O)c2cc(NC(=O)c3ccncc3)ccc21` (centres unmarked) [CA1-a, 3-{4-{2-[(1-amino-3-hydroxy-1-oxopropan-2-yl)amino]-2-oxoethyl}-6-(isonicotinamido)-2-oxo-3,4-dihydroquinazolin-1(2H)-yl}propan-1-aminium 2,2,2-trifluoroacetate] are 54.4 ± 3.45 µM, 86 ± 2.06 µM, 80 ± 2.15 µM, > 100 µM and > 1000 µM.
In the case of `NCCCN1C(=O)NC(CC(=O)NC(CO)C(N)=O)c2cc(NC(=O)c3ccccn3)ccc21` (centres unmarked) [CA1-f, 3-{4-{2-[(1-amino-3-hydroxy-1-oxopropan-2-yl)amino]-2-oxoethyl}-2-oxo-6-(picolinamido)-3,4-dihydroquinazolin-1(2H)-yl}propan-1-aminium 2,2,2-trifluoroacetate], the IC50 in assay [1] was 44.4 ± 2.2 µM; in assay [1] (Homo sapiens, HepG2, 72 h), < 50 µM; in assay [2], 81.3 ± 1.21 µM; in assay [3] (Homo sapiens, A2780, 72 h) it was > 100 µM; in assay [4] it was 97 ± 4.24 µM; in assay [5], > 1000 µM.
